Source: patent US20080293583A1, “Methods for diagnosing mood disorders” (Wyeth, priority 2003, published 2008)

Legend:
Type in all cases: in vivo
[1] = system: Pyruvate Dehydrogenase E1 component beta subunit, mitochondrial (precursor); assay: 2-DE proteome analysis of rat hippocampus: Pyruvate Dehydrogenase E1 beta; conditions: rat hippocampus cytosolic extract, 10 mg/kg i.p. daily 14 days, vs control; gel spot 26
Method: (§1) Animal dosing. Adult male Sprague Dawley rats weighing 230-320 g were housed with ad libitum access to food and water. After 1 week of habituation, rats were administered either an antidepressant or vehicle alone. The following drugs were administered intraperitoneally (i.p.): fluoxetine (10 mg/kg daily), venlafaxine (10 mg/kg daily) or vehicle alone (1 ml/kg normal saline daily) for 14 days (n=3 rats per group).
(§2) Sample preparation and cytosolic protein extraction. The animals were euthanized and hippocampi were rapidly dissected from the whole brain. Samples from each treatment group were pooled and stored at −85° C. Cytosolic extracts were prepared using the universal extraction kit from Sigma (prot-two) as follows: soluble cytoplasmic extraction reagent (S2688) was added to the hippocampal tissue (10 ml/250 mg wet weight). […]
(§3) Two-dimensional gel electrophoresis. […] Molecular masses were determined by running standard protein markers (Genomic Solutions Inc.), covering the range 10-200 kDa as well as internal verification via landmark proteins within the gel. […]
(§4) Protein fixation, silver staining and 2-D gel comparisons. […] Protein spots were outlined (first automatically and then manually) and quantified using the HT analyzer v2.2 software (Genomic Solutions Inc.). The software calculated the relative spot volume of the proteins compared with the total amount of protein in the gel. […]

[2] = system: Antioxidant protein 2 (calcium-independent PLA2); assay: 2-DE proteome analysis of rat hippocampus: Antioxidant protein 2; conditions: rat hippocampus cytosolic extract, 10 mg/kg i.p. daily 14 days, vs control; gel spot 51
Method: as §1, §2, §3, §4

[3] = system: Serine Protease Inhibitor 2.1 (SPI-2.1); assay: 2-DE proteome analysis of rat hippocampus: SPI-2.1; conditions: rat hippocampus cytosolic extract, 10 mg/kg i.p. daily 14 days, vs control; gel spot 62
Method: as §1, §2, §3, §4

[4] = system: 40 S ribosomal protein S 19; assay: 2-DE proteome analysis of rat hippocampus: ribosomal protein S 19; conditions: rat hippocampus cytosolic extract, 10 mg/kg i.p. daily 14 days, vs control; gel spot 72
Method: as §1, §2, §3, §4

[5] = system: 60S Ribosomal Protein L18A; assay: 2-DE proteome analysis of rat hippocampus: Ribosomal Protein L18A; conditions: rat hippocampus cytosolic extract, 10 mg/kg i.p. daily 14 days, vs control; gel spot 58
Method: as §1, §2, §3, §4

[6] = system: Proteasome subunit alpha type 2 (Multicatalytic endopeptidase complex subunit C3); assay: 2-DE proteome analysis of rat hippocampus: Proteasome subunit alpha type 2; conditions: rat hippocampus cytosolic extract, 10 mg/kg i.p. daily 14 days, vs control
Method: as §1
Sample preparation and cytosolic protein extraction. The animals were euthanized and hippocampi were rapidly dissected from the whole brain. Samples from each treatment group were pooled and stored at −85° C. Cytosolic extracts were prepared using the universal extraction kit from Sigma (prot-two) as follows: soluble cytoplasmic extraction reagent (S2688) was added to the hippocampal tissue (10 ml/250 mg wet weight). Samples were sonicated (4 times at 30 seconds) and centrifuged for 45 minutes (14,000 g) at 4° C. The supernatant was decanted and stored on ice. Ten milliliters of the soluble cytoplasmic extraction reagent was added to the remaining pellet and the sonication and centrifugation steps were repeated. The supernatant was decanted, combined with the previous supernatant and SpeedVac (Savant Instruments, Halbrook, N.Y.) dried. Each sample was dissolved in 2 ml of 2-D lysis buffer (6 M urea, 2 M thiourea, 4% CHAPS, 40 mM Tris, 65 mM dithiothreitol (DTT), 1 mM sodium vanadate, 1 mM sodium fluoride, protease inhibitor tablet (#1836145, Roche)), concentrated and desalted (Centricon tube; 6500 rpm) at 10° C. for 12 hours.
Two-dimensional gel electrophoresis. First dimensional isoelectric focusing (IEF) was performed on 18 cm IPG strips (pH 4-7) using an IPGphor unit (Amersham Pharmacia). Each strip was rehydrated for 16 hours with sample lysate (˜500 ug) in a final volume of 400 uL of IEF solution (10 uL of bromophenol blue (0.25% w/v); 2 uL of Ampholyte (pH 4-7, Amersham #17-6000-86); 2-D lysis buffer). […] The strips were then subjected to a two-step equilibration (50 mM Tris; 2% SDS; 30% glycerol) in (A) 0.5% DTT (Bio-Rad) and (B) 4.5% iodoacetamide (Sigma) buffers before proceeding to SDS-PAGE. […] Molecular masses were determined by running standard protein markers (Genomic Solutions Inc.), covering the range 10-200 kDa as well as internal verification via landmark proteins within the gel. […]
as §4

[7] = system: PCTAIRE-3 (Serine/Threonine-Protein Kinase); assay: 2-DE proteome analysis of rat hippocampus: PCTAIRE-3; conditions: rat hippocampus cytosolic extract, 10 mg/kg i.p. daily 14 days, vs control; gel spot 6
Method: as §1, §2, §3, §4

[8] = system: Fatty Acid-Binding Protein, Heart (H-FABP); assay: 2-DE proteome analysis of rat hippocampus: H-FABP; conditions: rat hippocampus cytosolic extract, 10 mg/kg i.p. daily 14 days, vs control; gel spot 89
Method: as §1, §2, §3, §4

[9] = system: Cytochrome C oxidase polypeptide VB, mitochondrial precursor (COX5B); assay: 2-DE proteome analysis of rat hippocampus: COX5B; conditions: rat hippocampus cytosolic extract, 10 mg/kg i.p. daily 14 days, vs control; gel spot 86
Method: as §1, §2, §3, §4

[10] = system: Adenine Phosphoribosyltransferase (APRT); assay: 2-DE proteome analysis of rat hippocampus: APRT; conditions: rat hippocampus cytosolic extract, 10 mg/kg i.p. daily 14 days, vs control; gel spot 57
Method: as §1, §2, §3, §4

[11] = system: Ras-related protein RAB-4A; assay: 2-DE proteome analysis of rat hippocampus: RAB-4A; conditions: rat hippocampus cytosolic extract, 10 mg/kg i.p. daily 14 days, vs control; gel spot 90 (mix)
Method: as §1, §2, §3, §4

SMILES	Fold change, Pyruvate Dehydrogenase E1 component beta subunit [1] [Fold change]	Fold change, Antioxidant protein 2 [2] [Fold change]	Fold change, Serine Protease Inhibitor 2.1 (SPI-2.1) [3] [Fold change]	Fold change, 40 S ribosomal protein S 19 [4] [Fold change]	Fold change, 60S Ribosomal Protein L18A [5] [Fold change]	Fold change, Proteasome subunit alpha type 2 ([6]; gel spot 27) [Fold change]	Fold change, Proteasome subunit alpha type 2 ([6]; gel spot 27, listed as fluoxetine) [Fold change]	Fold change, PCTAIRE-3 [7] [Fold change]	Fold change, Fatty Acid-Binding Protein, Heart (H-FABP) [8] [Fold change]	Fold change, Cytochrome C oxidase polypeptide VB (COX5B) [9] [Fold change]	Fold change, Adenine Phosphoribosyltransferase (APRT) [10] [Fold change]	Fold change, Ras-related protein RAB-4A [11] [Fold change]	Fold change, Proteasome subunit alpha type 2 ([6]; gel spot 27, listed as venlafaxine) [Fold change]
CNCCC(Oc1ccc(C(F)(F)F)cc1)c1ccccc1 (stereo not drawn) [Fluoxetine, fluoxetine]	3.2	1.6	2.9	2	1.8	6.1	6	1.5	1.6	3.2	5.8	1.5	–
COc1ccc(C(CN(C)C)C2(O)CCCCC2)cc1 (stereo not drawn) [Venlafaxine, venlafaxine]	2.6	1.7	1.9	1.8	2.9	10.6	–	1.5	2.1	4	3	1.5	10
